Laboratory results taken from the kinase profiling compilation of Christmann-Franck et al. (2016).

How the values were obtained:
Test in all cases: KINOMEscan competition binding
Details in all cases: compound 1.0 µM
RPS6KB1 (human) = RPS6KB1 (human) (UniProt P23443)
CDK4 CCND3 (human) = CDK4 CCND3 (human) (UniProt P11802+P30281)
PRKCE (human) = PRKCE (human) (UniProt Q02156)
CDK11B (human) = CDK11B (human) (UniProt P21127)
EPHA2 (human) = EPHA2 (human) (UniProt P29317)
TLK2 (human) = TLK2 (human) (UniProt Q86UE8)
PRKCQ (human) = PRKCQ (human) (UniProt Q04759)
CDC2L2 (human) = CDC2L2 (human) (UniProt Q9UQ88)
ERBB2 (human) = ERBB2 (human) (UniProt P04626)
CAMK2A (human) = CAMK2A (human) (UniProt Q9UQM7)
[1] = system: EIF2AK4 KD2 (human), Q9P2K8 [S808G]
STK17B (human) = STK17B (human) (UniProt O94768)
DDR1 (human) = DDR1 (human) (UniProt Q08345)
CAMK1G (human) = CAMK1G (human) (UniProt Q96NX5)
DCLK1 (human) = DCLK1 (human) (UniProt O15075)
RIPK1 (human) = RIPK1 (human) (UniProt Q13546)
RPS6KA1 KD1 (human) = RPS6KA1 KD1 (human) (UniProt Q15418)
DSTYK (human) = DSTYK (human) (UniProt Q6XUX3)
MERTK (human) = MERTK (human) (UniProt Q12866)
GRK1 (human) = GRK1 (human) (UniProt Q15835)
NEK9 (human) = NEK9 (human) (UniProt Q8TD19)
MINK1 (human) = MINK1 (human) (UniProt Q8N4C8)
Sequence of MINK1 (human) (Q8N4C8 whole entry, looked up): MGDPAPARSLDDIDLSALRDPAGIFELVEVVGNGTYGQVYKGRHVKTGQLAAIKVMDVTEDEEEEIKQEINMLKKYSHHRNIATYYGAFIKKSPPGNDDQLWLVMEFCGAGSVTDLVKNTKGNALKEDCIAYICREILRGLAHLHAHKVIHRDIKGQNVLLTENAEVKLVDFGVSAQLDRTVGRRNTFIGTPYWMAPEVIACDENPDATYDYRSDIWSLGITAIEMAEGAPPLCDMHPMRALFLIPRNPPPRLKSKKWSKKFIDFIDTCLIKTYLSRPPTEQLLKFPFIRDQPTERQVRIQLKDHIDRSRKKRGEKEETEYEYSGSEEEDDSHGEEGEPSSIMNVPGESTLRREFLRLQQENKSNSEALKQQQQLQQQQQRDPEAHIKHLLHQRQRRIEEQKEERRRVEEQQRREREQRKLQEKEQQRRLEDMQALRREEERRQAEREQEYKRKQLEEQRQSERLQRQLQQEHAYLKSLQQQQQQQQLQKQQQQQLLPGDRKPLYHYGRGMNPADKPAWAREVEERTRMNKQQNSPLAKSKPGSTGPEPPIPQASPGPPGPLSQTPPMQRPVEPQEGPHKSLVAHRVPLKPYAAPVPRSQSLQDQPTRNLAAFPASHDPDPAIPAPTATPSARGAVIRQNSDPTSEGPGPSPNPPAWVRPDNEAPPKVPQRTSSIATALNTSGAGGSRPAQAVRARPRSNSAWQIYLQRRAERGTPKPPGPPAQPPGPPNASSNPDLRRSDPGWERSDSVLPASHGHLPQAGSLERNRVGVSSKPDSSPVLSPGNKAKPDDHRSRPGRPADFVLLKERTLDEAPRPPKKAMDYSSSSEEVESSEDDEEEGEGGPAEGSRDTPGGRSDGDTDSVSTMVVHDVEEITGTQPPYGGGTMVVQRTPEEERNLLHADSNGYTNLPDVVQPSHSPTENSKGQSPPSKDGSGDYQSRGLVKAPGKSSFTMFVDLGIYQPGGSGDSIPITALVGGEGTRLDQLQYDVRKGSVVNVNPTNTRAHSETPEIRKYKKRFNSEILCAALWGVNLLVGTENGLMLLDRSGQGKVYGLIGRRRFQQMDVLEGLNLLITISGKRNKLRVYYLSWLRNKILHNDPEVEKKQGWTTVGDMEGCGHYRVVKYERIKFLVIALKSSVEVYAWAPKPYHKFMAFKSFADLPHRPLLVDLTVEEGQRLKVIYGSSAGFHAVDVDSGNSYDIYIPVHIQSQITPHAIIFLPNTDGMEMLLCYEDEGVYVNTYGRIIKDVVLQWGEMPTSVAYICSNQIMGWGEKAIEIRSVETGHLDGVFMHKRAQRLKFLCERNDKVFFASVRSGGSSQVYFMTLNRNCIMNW

ACVR2B (human) = ACVR2B (human) (UniProt Q13705)
[2] = system: KIT (human), P10721 [V559D/T670I]
RPS6KA6 KD2 (human) = RPS6KA6 KD2 (human) (UniProt Q9UK32)
STK25 (human) = STK25 (human) (UniProt O00506)
TXK (human) = TXK (human) (UniProt P42681)
RPS6KA2 KD1 (human) = RPS6KA2 KD1 (human) (UniProt Q15349)
PIK3CG (human) = PIK3CG (human) (UniProt P48736)
NUAK2 (human) = NUAK2 (human) (UniProt Q9H093)
Sequence of NUAK2 (human) (Q9H093 whole entry, looked up): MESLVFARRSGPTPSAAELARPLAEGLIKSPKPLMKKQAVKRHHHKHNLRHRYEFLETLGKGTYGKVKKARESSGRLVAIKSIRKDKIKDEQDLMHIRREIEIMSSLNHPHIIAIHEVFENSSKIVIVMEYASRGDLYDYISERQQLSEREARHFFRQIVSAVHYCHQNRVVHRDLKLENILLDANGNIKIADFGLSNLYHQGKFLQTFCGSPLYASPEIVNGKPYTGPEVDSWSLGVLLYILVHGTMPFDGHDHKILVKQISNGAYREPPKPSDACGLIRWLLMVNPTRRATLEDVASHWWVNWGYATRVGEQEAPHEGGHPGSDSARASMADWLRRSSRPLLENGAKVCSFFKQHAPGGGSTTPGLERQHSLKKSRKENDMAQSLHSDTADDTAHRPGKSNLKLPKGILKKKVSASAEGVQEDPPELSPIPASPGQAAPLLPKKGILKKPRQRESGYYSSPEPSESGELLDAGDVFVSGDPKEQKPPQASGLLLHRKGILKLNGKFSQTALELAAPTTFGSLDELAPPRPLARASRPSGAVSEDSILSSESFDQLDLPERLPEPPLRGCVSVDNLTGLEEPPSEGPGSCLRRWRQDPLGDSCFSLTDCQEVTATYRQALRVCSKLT

PLK4 (human) = PLK4 (human) (UniProt O00444)
Sequence of PLK4 (human) (O00444 whole entry, looked up): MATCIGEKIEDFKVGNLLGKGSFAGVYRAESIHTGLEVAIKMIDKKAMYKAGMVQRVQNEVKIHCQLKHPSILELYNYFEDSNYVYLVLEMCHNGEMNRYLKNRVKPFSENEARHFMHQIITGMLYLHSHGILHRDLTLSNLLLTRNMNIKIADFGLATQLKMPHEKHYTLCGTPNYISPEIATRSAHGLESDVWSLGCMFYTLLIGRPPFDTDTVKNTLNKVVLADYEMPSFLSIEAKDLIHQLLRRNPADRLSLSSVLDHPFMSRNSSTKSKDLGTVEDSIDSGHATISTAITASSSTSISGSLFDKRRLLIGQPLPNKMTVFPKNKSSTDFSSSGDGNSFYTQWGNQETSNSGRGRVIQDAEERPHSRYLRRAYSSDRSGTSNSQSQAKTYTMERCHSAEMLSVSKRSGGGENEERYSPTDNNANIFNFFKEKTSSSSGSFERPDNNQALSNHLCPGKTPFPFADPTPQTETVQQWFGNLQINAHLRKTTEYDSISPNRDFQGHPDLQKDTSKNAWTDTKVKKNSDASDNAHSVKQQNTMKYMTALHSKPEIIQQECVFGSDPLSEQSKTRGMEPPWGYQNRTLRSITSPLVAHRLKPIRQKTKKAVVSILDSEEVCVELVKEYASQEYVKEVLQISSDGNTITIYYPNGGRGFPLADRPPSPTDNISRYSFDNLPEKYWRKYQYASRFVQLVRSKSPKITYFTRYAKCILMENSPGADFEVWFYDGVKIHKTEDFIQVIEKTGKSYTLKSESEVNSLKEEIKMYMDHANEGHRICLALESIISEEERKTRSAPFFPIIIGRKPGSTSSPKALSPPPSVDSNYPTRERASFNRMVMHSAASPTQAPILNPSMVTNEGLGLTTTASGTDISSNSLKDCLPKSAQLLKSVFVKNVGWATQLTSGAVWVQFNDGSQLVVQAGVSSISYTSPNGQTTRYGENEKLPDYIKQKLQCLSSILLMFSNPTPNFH

PIK3CB (human) = PIK3CB (human) (UniProt P42338)
MAP3K11 (human) = MAP3K11 (human) (UniProt Q16584)
Sequence of MAP3K11 (human) (Q16584 whole entry, looked up): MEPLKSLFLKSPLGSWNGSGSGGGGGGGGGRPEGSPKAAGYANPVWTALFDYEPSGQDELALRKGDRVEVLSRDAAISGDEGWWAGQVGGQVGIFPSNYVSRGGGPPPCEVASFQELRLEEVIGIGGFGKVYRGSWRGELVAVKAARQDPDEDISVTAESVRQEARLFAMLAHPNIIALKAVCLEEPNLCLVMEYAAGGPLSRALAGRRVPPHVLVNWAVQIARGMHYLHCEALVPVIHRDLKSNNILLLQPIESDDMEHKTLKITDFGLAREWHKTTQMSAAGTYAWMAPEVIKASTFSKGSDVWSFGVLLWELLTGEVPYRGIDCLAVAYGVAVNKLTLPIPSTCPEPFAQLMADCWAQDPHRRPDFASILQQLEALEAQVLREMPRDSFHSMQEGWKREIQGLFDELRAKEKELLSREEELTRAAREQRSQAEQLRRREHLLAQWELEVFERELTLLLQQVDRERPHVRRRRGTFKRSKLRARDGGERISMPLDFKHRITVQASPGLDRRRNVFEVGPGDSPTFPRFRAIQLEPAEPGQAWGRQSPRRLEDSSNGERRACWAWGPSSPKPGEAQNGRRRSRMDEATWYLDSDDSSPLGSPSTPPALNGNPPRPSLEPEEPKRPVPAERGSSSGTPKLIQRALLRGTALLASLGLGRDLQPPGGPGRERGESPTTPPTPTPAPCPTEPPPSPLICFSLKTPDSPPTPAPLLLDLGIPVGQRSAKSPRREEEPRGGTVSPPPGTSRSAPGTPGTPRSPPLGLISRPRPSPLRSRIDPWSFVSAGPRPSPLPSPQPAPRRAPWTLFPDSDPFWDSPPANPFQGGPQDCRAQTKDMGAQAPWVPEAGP

CDK17 (human) = CDK17 (human) (UniProt Q00537)
Sequence of CDK17 (human) (Q00537 whole entry, looked up): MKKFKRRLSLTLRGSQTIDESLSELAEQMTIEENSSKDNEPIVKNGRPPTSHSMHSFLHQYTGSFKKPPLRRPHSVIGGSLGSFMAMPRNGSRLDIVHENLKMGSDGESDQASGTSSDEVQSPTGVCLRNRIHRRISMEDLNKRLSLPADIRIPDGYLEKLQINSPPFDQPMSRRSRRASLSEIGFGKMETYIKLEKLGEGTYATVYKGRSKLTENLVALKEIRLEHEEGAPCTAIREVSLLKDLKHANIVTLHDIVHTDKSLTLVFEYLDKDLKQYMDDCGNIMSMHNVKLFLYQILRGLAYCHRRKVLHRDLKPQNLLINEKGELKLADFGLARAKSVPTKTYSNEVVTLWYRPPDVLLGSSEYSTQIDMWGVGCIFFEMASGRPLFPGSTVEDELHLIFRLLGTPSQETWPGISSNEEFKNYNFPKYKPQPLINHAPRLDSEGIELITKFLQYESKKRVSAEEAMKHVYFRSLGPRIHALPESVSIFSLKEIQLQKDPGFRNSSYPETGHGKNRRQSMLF

[3] = system: MET (human), P08581 [Y1235D]
YES1 (human) = YES1 (human) (UniProt P07947)
MAP3K3 (human) = MAP3K3 (human) (UniProt Q99759)
Sequence of MAP3K3 (human) (Q99759 whole entry, looked up): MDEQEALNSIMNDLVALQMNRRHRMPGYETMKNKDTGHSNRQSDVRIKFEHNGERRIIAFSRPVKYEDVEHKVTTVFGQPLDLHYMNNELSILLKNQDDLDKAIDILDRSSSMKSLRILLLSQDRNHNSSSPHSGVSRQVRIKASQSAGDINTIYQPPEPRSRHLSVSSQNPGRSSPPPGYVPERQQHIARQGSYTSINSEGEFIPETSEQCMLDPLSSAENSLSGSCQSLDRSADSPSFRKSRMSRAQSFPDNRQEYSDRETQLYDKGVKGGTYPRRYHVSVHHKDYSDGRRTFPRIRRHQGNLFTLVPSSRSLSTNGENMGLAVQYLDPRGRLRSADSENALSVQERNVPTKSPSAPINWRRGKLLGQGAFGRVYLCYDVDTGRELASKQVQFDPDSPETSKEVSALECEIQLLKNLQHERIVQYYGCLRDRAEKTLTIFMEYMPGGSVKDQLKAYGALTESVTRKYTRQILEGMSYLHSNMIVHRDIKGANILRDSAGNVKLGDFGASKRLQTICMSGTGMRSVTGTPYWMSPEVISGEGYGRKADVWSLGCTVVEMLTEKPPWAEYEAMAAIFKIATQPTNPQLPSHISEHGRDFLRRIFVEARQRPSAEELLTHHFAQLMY

PLK2 (human) = PLK2 (human) (UniProt Q9NYY3)

Compound: CNc1nc(Nc2ccc(C(=O)N3CCOCC3)cc2OC)ncc1Cl
- kinase still bound, per cent of control (RPS6KB1 (human)): 85%
- residual activity (CDK4 CCND3 (human)): 36%
- kinase still bound, per cent of control (PRKCE (human)): 86%
- residual activity (CDK11B (human)): 100%
- kinase still bound, per cent of control (EPHA2 (human)): 100%
- kinase still bound, per cent of control (TLK2 (human)): 100%
- kinase still bound, per cent of control (PRKCQ (human)): 100%
- residual activity (CDC2L2 (human)): 100%
- kinase still bound, per cent of control (ERBB2 (human)): 100%
- kinase still bound, per cent of control (CAMK2A (human)): 76%
- kinase still bound, per cent of control [1]: 85%
- kinase still bound, per cent of control (STK17B (human)): 14%
- kinase still bound, per cent of control (DDR1 (human)): 100%
- kinase still bound, per cent of control (CAMK1G (human)): 96%
- kinase still bound, per cent of control (DCLK1 (human)): 100%
- kinase still bound, per cent of control (RIPK1 (human)): 100%
- kinase still bound, per cent of control (RPS6KA1 KD1 (human)): 100%
- kinase still bound, per cent of control (DSTYK (human)): 100%
- kinase still bound, per cent of control (MERTK (human)): 100%
- kinase still bound, per cent of control (GRK1 (human)): 100%
- kinase still bound, per cent of control (NEK9 (human)): 93%
- kinase still bound, per cent of control (MINK1 (human)): 100%
- kinase still bound, per cent of control (ACVR2B (human)): 65%
- kinase still bound, per cent of control [2]: 100%
- kinase still bound, per cent of control (RPS6KA6 KD2 (human)): 89%
- kinase still bound, per cent of control (STK25 (human)): 100%
- kinase still bound, per cent of control (TXK (human)): 100%
- kinase still bound, per cent of control (RPS6KA2 KD1 (human)): 100%
- kinase still bound, per cent of control (PIK3CG (human)): 78%
- kinase still bound, per cent of control (NUAK2 (human)): 100%
- kinase still bound, per cent of control (PLK4 (human)): 62%
- kinase still bound, per cent of control (PIK3CB (human)): 100%
- kinase still bound, per cent of control (MAP3K11 (human)): 100%
- residual activity (CDK17 (human)): 97%
- kinase still bound, per cent of control [3]: 100%
- kinase still bound, per cent of control (YES1 (human)): 100%
- kinase still bound, per cent of control (MAP3K3 (human)): 56%
- kinase still bound, per cent of control (PLK2 (human)): 100%
